{
  "source": "paper PMC8840081",
  "about": "“Phenylalanine-Based AMPA Receptor Antagonist as the Anticonvulsant Agent with Neuroprotective Activity—In Vitro and In Vivo Studies” (Molecules, 2022)",
  "key": {"[1]": {"tested_on": "cold hyperalgesia in oxaliplatin-treated mice", "assay": "oxaliplatin-induced neuropathic pain model, cold plate test", "format": "in vivo", "settings": "10 and 30 mg/kg i.p., early and late phase", "description": "(§1) Behavioral experiments were carried out in male Albino Swiss (CD-1) mice weighing 18–22 g. The mice were kept in cages, in groups of 10 animals. They had free access to food and water before experiments, and were maintained at room temperature 22–24 °C, under 12:12 (light/dark) cycle. For the assays the animals were selected randomly. After the experiments the animals were euthanized by cervical dislocation. Experimental procedures for in vivo tests were approved by the Local Ethics Committee of the Jagiellonian University in Krakow (Approval No. 33/2018; release date: 1.02.2018) and the treatment of animals was performed in full accordance with ethical standards laid down in respective Polish and EU regulations (Directive 2010/63/EU).\n(§2) Oxaliplatin was purchased from Activate Scientific GmbH (Prien, Germany). PTZ and STZ were provided by Merck KGaA (Darmstadt, Germany). For the in vivo tests, the compound 1 was suspended in 1% Tween 80 solution (Polskie Odczynniki Chemiczne, Gliwice, Poland), then being administered intraperitoneally 1 h before tests. For the evaluation of anticonvulsant properties of the test compound, a fixed dose of 100 mg/kg, was used. Since many AEDs at lower doses are used as analgesic drugs, for pain tests the doses 10 and 30 mg/kg were selected. […]\nThe effect of 1 on cold pain threshold was assessed using the cold plate test. […]"}, "[2]": {"tested_on": "PTZ-induced clonic seizures in mice", "assay": "PTZ seizure test", "format": "in vivo", "settings": "PTZ 100 mg/kg s.c.; compound 100 mg/kg i.p.", "description": "as §1\nOxaliplatin was purchased from Activate Scientific GmbH (Prien, Germany). PTZ and STZ were provided by Merck KGaA (Darmstadt, Germany). For the in vivo tests, the compound 1 was suspended in 1% Tween 80 solution (Polskie Odczynniki Chemiczne, Gliwice, Poland), then being administered intraperitoneally 1 h before tests. […]\nThis test was carried out according to the method recently described. […] In this assay the latency to the occurrence of the first clonic seizure episode was measured and compared in drug-treated and control mice. […] The number of seizure episodes was also recorded in each group. • 6-Hz Test"}, "[3]": {"tested_on": "electrically induced seizures in mice", "assay": "maximal electroshock (MES) test", "format": "in vivo", "settings": "100 mg/kg i.p.", "description": "as §1\n(§3) Oxaliplatin was purchased from Activate Scientific GmbH (Prien, Germany). PTZ and STZ were provided by Merck KGaA (Darmstadt, Germany). For the in vivo tests, the compound 1 was suspended in 1% Tween 80 solution (Polskie Odczynniki Chemiczne, Gliwice, Poland), then being administered intraperitoneally 1 h before tests. For the evaluation of anticonvulsant properties of the test compound, a fixed dose of 100 mg/kg, was used. Since many AEDs at lower doses are used as analgesic drugs, for pain tests the doses 10 and 30 mg/kg were selected.\nMES test was performed as described previously. […]"}, "[4]": {"tested_on": "6-Hz psychomotor seizures in mice", "assay": "6-Hz test", "format": "in vivo", "settings": "100 mg/kg i.p.", "description": "as §1, §3\nThis test was performed according to Barton et al.. […]"}, "[5]": {"tested_on": "tactile allodynia in oxaliplatin-treated mice", "assay": "oxaliplatin-induced neuropathic pain model, von Frey test", "format": "in vivo", "settings": "10 and 30 mg/kg i.p., early and late phase", "description": "as §1, §2"}, "[6]": {"tested_on": "tactile allodynia in diabetic mice", "assay": "diabetic (STZ) neuropathic pain model, von Frey test", "format": "in vivo", "settings": "30 mg/kg i.p.", "description": "Behavioral experiments were carried out in male Albino Swiss (CD-1) mice weighing 18–22 g. The mice were kept in cages, in groups of 10 animals. They had free access to food and water before experiments, and were maintained at room temperature 22–24 °C, under 12:12 (light/dark) cycle. For the assays the animals were selected randomly. After the experiments the animals were euthanized by cervical dislocation. […]\nTo induce type I diabetes and diabetic neuropathic pain, mice were administered STZ, an alkylating antitumor drug that destroys insulin-secreting islet cells. […] Blood glucose levels were measured 1 day before (referred to as ‘day 0′) and repeatedly 1, 2 and 3 weeks after STZ injection using a blood glucose monitoring system (AccuChek Active, Roche, France). […]\nThe electronic von Frey unit (Bioseb, France) is supplied with a single flexible filament applying increasing force (from 0 to 10 g) against the plantar surface of the hind paw. In this assay the nocifensive paw withdrawal response automatically turns off the stimulus and the mechanical pressure that evoked the response was recorded. […]"}, "[7]": {"assay": "ferric reducing antioxidant power (FRAP) assay", "settings": "% of ascorbic acid activity; compounds and AA at 1 mM", "description": "The total antioxidant potential of aryl-substituted phenylalanine derivatives was determined using FRAP assay. The FRAP reagent was prepared first by mixing acetate buffer (300 mM, pH 3.6), a solution of 10 mM TPTZ (2,4,6-tripyridyl-s-triazine, Sigma-Aldrich, Inc., St. Louis, MO, USA) in 40 mM HCl and 20 mM of iron (III) chloride hexahydrate (FeCl3 × 6H2O, Chempur, Piekary Śląskie, Poland) at 10:1:1 (v/v/v). The FRAP reagent (190 μL) and 1 mM of tested compound (10 μL) was added next to each well, mixed and incubated for 30 min. The absorbance was measured using a microplate reader EnSpire (PerkinElmer, Waltham, MA USA) at 593 nm. AA (1 mM, AMARA, Kraków, Poland) was used as the reference antioxidant. The results were expressed as % of ascorbic acid activity (%AAA). Analyses were performed in triplicate. • ORAC-FL"}},
  "note": "“And” between values parts separate entries of the source, which are not always exact repeats. Identical values can stand only once.",
  "data": [
    {"smiles": "NC(Cc1cc(-c2cc(O)ccc2O)c(Cl)c([N+](=O)[O-])c1)C(=O)O", "note": "(stereo not shown) [Compound 1]", "values": [
      {"measurement": "effect on cold hyperalgesia, cold plate test", "setting": "[1]", "value": "unable to attenuate cold hyperalgesia"},
      {"measurement": "latency to first clonus", "setting": "[2]", "value": "not able to prolong latency to the first clonus"},
      {"measurement": "number of seizure episodes", "setting": "[2]", "value": "remained unaffected"},
      {"measurement": "Mortality rate (%)", "setting": "[3]", "value": 25, "unit": "%"},
      {"measurement": "X/Y, number of mice protected (X) per number of mice tested (Y)", "setting": "[3]; 1 h before test", "value": "0/4"},
      {"measurement": "Mortality rate (%)", "setting": "[4]", "value": 0, "unit": "%"},
      {"measurement": "X/Y, number of mice protected (X) per number of mice tested (Y)", "setting": "[4]; 1 h before test", "value": "3/4"},
      {"measurement": "effect on tactile allodynia, von Frey test", "setting": "[5]", "value": "not effective"},
      {"measurement": "antiallodynic activity, von Frey test", "setting": "[6]", "value": "not able to attenuate tactile allodynia"},
      {"measurement": "FRAP (%AAA)", "setting": "[7]", "value": "748.5 %AAA and 748.49 %AAA"}
    ]}
  ]
}
